Measurements from patent publication US11492347B2 (ENYO PHARMA, priority 2018, dated 2022).

What was measured:
[1] = target: T1, CISD1 Gene Product (mitoNEET) (Homo sapiens, UniProt Q9NZ45); assay: Stability of Fe-S cluster binding of purified NEET protein (absorbance 458 nm); assay type: biochemical; settings: for Time (in minutes) to achieve 50% loss of bound cluster (Absorbance 458 nm) / Residual cluster bound at end of experiment (Percentage Absorbance 458 nm at time zero): mitoNEET 20 μM, compound 60 μM; for Time (in minutes) to achieve 50% loss of bound cluster (Absorbance 458 nm): pH 6, 37° C., run time 180 minutes, vehicle control 80; for Residual cluster bound at end of experiment (Percentage Absorbance 458 nm at time zero): pH 6, at 180 minutes, vehicle control 16%
T1 sequence (Q9NZ45 33-108 limits assumed): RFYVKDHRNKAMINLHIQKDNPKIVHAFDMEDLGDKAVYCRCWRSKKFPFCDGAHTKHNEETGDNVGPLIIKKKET
How it was run: (§1)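 Purified NEET protein (20 μM) with compound (60 μM, 1:3 molar ratio) in 100 mM Bis-Tris pH 6, 100 mM NaCl, 66 μM DMSO at 37 °C; 458 nm absorbance decay read every 5 min for 500 min (NAF-1) or 180 min (mitoNEET, Miner2). Outputs: time to 50% absorbance loss and residual % bound cluster, versus protein alone.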

[2] = target: T2, CISD2 Gene Product (NAF-1) (Homo sapiens, UniProt Q8N5K1); assay: as above; assay type: biochemical; settings: NAF-1 20 μM, compound 60 μM; for Time (in minutes) to achieve 50% loss of bound cluster (Absorbance 458 nm): pH 6, 37° C., run time 500 minutes, vehicle control 310 or 210; for Residual cluster bound at end of experiment (Percentage Absorbance 458 nm at time zero): pH 6, at 500 minutes, vehicle control 3%
T2 sequence (Q8N5K1 57-135 limits assumed): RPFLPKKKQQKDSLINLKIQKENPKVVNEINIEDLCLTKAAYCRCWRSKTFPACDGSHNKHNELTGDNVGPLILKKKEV
How it was run: as §1

[3] = target: T3, CISD3 Gene Product (Miner2) (Homo sapiens, UniProt P0C7P0); assay: as above; assay type: biochemical; settings: for Residual cluster bound at end of experiment (Percentage Absorbance 458 nm at time zero): CISD3 gene product 20 μM, pH 6, at 180 minutes, vehicle control 11%; for Residual cluster bound at end of experiment (Percentage Absorbance 458 nm at time zero) / Time (in minutes) to achieve 50% loss of bound cluster (Absorbance 458 nm): compound 60 μM; for Time (in minutes) to achieve 50% loss of bound cluster (Absorbance 458 nm): Miner2 20 μM, pH 6, 37° C., run time 180 minutes, vehicle control 60; for Stabiliser or destabiliser of Fe-S cluster binding by CISD3 Gene Product (Miner2): time to 50% cluster loss changed by more than 25% compared to the Control sample, at the concentrations tested
T3 sequence (P0C7P0 15-127): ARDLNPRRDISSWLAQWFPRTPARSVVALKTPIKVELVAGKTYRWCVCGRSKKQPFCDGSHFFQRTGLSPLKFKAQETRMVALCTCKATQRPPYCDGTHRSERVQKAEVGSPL
How it was run: as §1

[4] = tested on: H1N1 (influenza A/New Caledonia/20/99); assay: microbe, parasite or virus in culture; assay type: cell-based; settings: H1N1, A549, 48 h

## CC1(C)Cc2c(sc(NC(=O)c3ccc(N4CCOCC4)cc3)c2C(=O)O)C(C)(C)C1 [Compound #36, 5,5,7,7-Tetramethyl-2-[(4-morpholinobenzoyl)amino]-4,6-dihydrobenzothiophene-3-carboxylic acid]
[1]
  Time (in minutes) to achieve 50% loss of bound cluster (Absorbance 458 nm): 98 (80) minutes
  Residual cluster bound at end of experiment (Percentage Absorbance 458 nm at time zero): 36 % (16%)
[2]
  Time (in minutes) to achieve 50% loss of bound cluster (Absorbance 458 nm): 210 (210) minutes
  Residual cluster bound at end of experiment (Percentage Absorbance 458 nm at time zero): 30% (3%)
[3]
  Residual cluster bound at end of experiment (Percentage Absorbance 458 nm at time zero): 39% (11%)
  Time (in minutes) to achieve 50% loss of bound cluster (Absorbance 458 nm): 80 (60) minutes
  Stabiliser or destabiliser of Fe-S cluster binding by CISD3 Gene Product (Miner2): Stabilisers
[4]
  IC50: 40.1 nM

## CC1(C)CCc2sc(NC(=O)c3ccccc3)c(C(=O)O)c21 [Compound #37, 2-Benzamido-4,4-dimethyl-5,6-dihydrocyclopenta[b]thiophene-3-carboxylic acid]
[1]
  Time (in minutes) to achieve 50% loss of bound cluster (Absorbance 458 nm): 85 (80) minutes
  Residual cluster bound at end of experiment (Percentage Absorbance 458 nm at time zero): 23% (16%)
[2]
  Time (in minutes) to achieve 50% loss of bound cluster (Absorbance 458 nm): 280 (210) minutes
  Residual cluster bound at end of experiment (Percentage Absorbance 458 nm at time zero): 3% (3%)
[3]
  Residual cluster bound at end of experiment (Percentage Absorbance 458 nm at time zero): 37% (11%)
  Time (in minutes) to achieve 50% loss of bound cluster (Absorbance 458 nm): 75 (60) minutes
  Stabiliser or destabiliser of Fe-S cluster binding by CISD3 Gene Product (Miner2): Stabilisers
[4]
  IC50: 196 nM

## COC1CN(c2ccc(C(=O)Nc3sc4c(c3C(=O)O)CC(C)(C)CC4(C)C)cc2)C1 [Compound #58, 2-[[4-(3-Methoxyazetidin-1-yl)benzoyl]amino]-5,5,7,7-tetramethyl-4,6-dihydrobenzothiophene-3-carboxylic acid]
[1]
  Time (in minutes) to achieve 50% loss of bound cluster (Absorbance 458 nm): 100 (80) minutes
  Residual cluster bound at end of experiment (Percentage Absorbance 458 nm at time zero): 36% (16%)
[1]; time to 50% cluster loss changed by more than 25% compared to the Control sample, at the concentrations tested
  Stabiliser or destabiliser of Fe-S cluster binding by CISD1 Gene Product (mitoNEET): stabilisers
[2]
  Time (in minutes) to achieve 50% loss of bound cluster (Absorbance 458 nm): 280 (310) minutes
  Residual cluster bound at end of experiment (Percentage Absorbance 458 nm at time zero): 39% (3%)
[3]
  Residual cluster bound at end of experiment (Percentage Absorbance 458 nm at time zero): 44% (11%)
  Time (in minutes) to achieve 50% loss of bound cluster (Absorbance 458 nm): 125 (60) minutes
  Stabiliser or destabiliser of Fe-S cluster binding by CISD3 Gene Product (Miner2): Stabilisers
[4]
  IC50: 0.9 nM
